For assay [1], the target named is Recombinant human Bcl-2 protein (Homo sapiens, UniProt P10415). In words: Bcl-2 TR-FRET assay. The format is binding. Particulars: TR-FRET, 0.05 nM Bcl-2, FITC labeled Bak peptide 0.5 nM; read-out: Biochemical assay (IC50, nM) Bcl-2 WT. Here is the method:
Compounds disclosed herein were tested for blocking of Bcl-2 protein with its ligand in an assay based on Time-Resolved Fluorescence Resonance Energy Transfer (TR-FRET) methodology. Recombinant human 0.05 nM Bcl-2 protein was pre-incubated with a serial dilution of compounds disclosed herein (top final concentration is 1 uM or 0.1 uM or 0.02 uM or 0.01 uM, 10 points) at room temperature for 0.5 hour in an assay buffer containing 20 mM potassium phosphate buffer, pH 7.5, 50 mM NaCl, 1 mM EDTA, 0.05% Tween-20, 0.01% BSA. […] The inhibition percentage of Bcl-2 interaction with its ligand in presence of increasing concentrations of compounds was calculated based on the TR-FRET signals. The IC50 for each compound was derived from fitting the data to the four-parameter logistic equation by Graphpad Prism software or Dotmatics.
(Time-resolved FRET reads energy transfer from a long-lived donor to a nearby acceptor.)

Assay [2] addresses recombinant human Bcl-2-G101V protein (Homo sapiens, UniProt P10415, G101V). The assay is described as follows: Bcl-2-G101V TR-FRET assay. It counts as binding. Particulars: TR-FRET, 0.1 nM Bcl-2-G101V, FITC labeled Bak peptide 5 nM; read-out: Biochemical assay (IC50, nM) Bcl-2 G101V. An excerpt:
The IC50 for each compound was derived from fitting the data to the four-parameter logistic equation by Graphpad Prism software or Dotmatics.

The test system of assay [3] is RS4;11 (BCL-2 dependent acute lymphoblastic leukemia cell line). In words: RS4;11 cell proliferation assay. It counts as cell-based. The settings on record: CellTiter-GLO, read-out: Cellular proliferation assay (IC50, nM) RS4. Here is the method: RS4;11 Cell Proliferation Assay:
Each compound was serially diluted with 1 μM as the maximum concentration. To test the apoptotic effect of the compounds, the cells were seeded at 50,000 in 180 μl per well in 96-well plates and treated with 10-point dilution series of each compound for 48 hrs at 37° C. Cell viability was assessed after the treatment using CellTiter-GLO luminescent assay (Promega) according to the manufacturer's recommendations. Briefly, 30 μl of CellTiter-GLO reagent was added into 200 μl of cell culture, Mixture was agitated on an orbital shaker for 5 mins to ensure cell lysis followed by 7 mins incubation at room temperature to allow development and stabilization of luminescent signals, which corresponded to quantity of ATP and thus the quantity of metabolically active cells. Luminescent signals were measured using PHERAstar FS reader (BMG). Mean IC50 values for cell viability were determined with GraphPad Prism software.
(In ATP-based viability assays light output follows the ATP content of the culture.)

The subject of assay [4] is Molt-4 (Bcl-xL-dependent ALL cell line). The assay is described as follows: Molt-4 cell proliferation assay. The format is cell-based. The settings on record: CellTiter-GLO, read-out: Cellular proliferation assay (IC50, nM) Molt-4. An excerpt: Molt-4 Cell Proliferation Assay:
Each compound was serially diluted with 10 1M as the maximum concentration. The anti-proliferative IC50s of these compounds were similarly determined as a percentage of viable cells upon treatment compared to the untreated control using CellTiter-GLO luminescent assay.

For the next assay, the target named is BA/F3-BCL-2 cells (Homo sapiens, UniProt P10415). In words: BA/F3 cell proliferation assay, BCL-2 wild type. It counts as cell-based, Murine. The settings on record: 24 hrs treatment, 3% FBS, CellTiter-Glo, geometric mean of 3 experiments; read-out: Cellular proliferation assay (IC50, nM) Bcl-2 WT; BaF3 cell. On the procedure: (§1) BA/F3 cell Proliferation Assay:
(§2) The cells were treated with a 10-point dilution series of compounds for 24 hrs. After the compound treatment, 30 μl of CellTiter-Glo reagent was added in each well. The effects on proliferation were determined using Cell TiterGlo reagent (Promega) according to the manufacturer's instructions. Luminescent signals were measured using PHERAstar FS plate reader (BMG Labtech). ICS50 values for cell viability were determined with GraphPad Prism software and were the geometric mean of 3 independent experiments.

In another assay the target is BA/F3-BCL-2 G101V cells (Homo sapiens, UniProt P10415, G101V, cells depend on it). The assay is described as follows: BA/F3 cell proliferation assay, Bcl-2 G101V. It counts as cell-based, Murine. The settings on record: 24 hrs treatment, 3% FBS, CellTiter-Glo, geometric mean of 3 experiments; read-out: Cellular proliferation assay (IC50, nM) Bcl-2 G101V; BaF3 cell. On the procedure:
as §1, §2

The mark [5] stands for this setting: Homo sapiens, RS4-11, 48 hrs treatment.

Read-outs that look alike come from different tables or passages of the source.

Consider 5 molecules from patent publication US12516053B2, “Bcl-2 inhibitors” (BEIGENE, LTD., priority 2019, dated 2026).

As to `CC(C)c1ccccc1[C@@H]1CCCN1C1CC2(C1)CN(c1ccc(C(=O)NS(=O)(=O)c3ccc(NCC4(F)CCOCC4)c([N+](=O)[O-])c3)c(N3CCCOc4nc5[nH]ccc5cc43)c1)C2` [Example B14, (S)-2-(3,4-dihydro-2H-pyrrolo[3′,2′:5,6]pyrido[2,3-b][1,4]oxazepin-1(7H)-yl)-N-((4-(((4-fluorotetrahydro-2H-pyran-4-yl)methyl)amino)-3-nitrophenyl)sulfonyl)-4-(6-(2-(2-isopropylphenyl)pyrrolidin-1-yl)-2-azaspiro[3.3]heptan-2-yl)benzamide], the IC50 in assay [1] was 0.11 nM; in assay [2], 3.1 nM; in assay [3] (setting [5]), 4.8 nM; in assay [4] (Homo sapiens, MOLT-4) it was above 10000 nM; at BA/F3-BCL-2 cells, 2.4 nM. The GI50 at BA/F3-BCL-2 G101V cells was determined as 26.5 nM.

Consider “2-(2,3-dihydropyrrolo[3′,2′:56]pyrido[2,3-b][1,4]oxazin-1(6H)-yl)-N-((4-((((1r,4r)-4-hydroxy-4-methylcyclohexyl)methyl)amino)-3-nitrophenyl)sulfonyl)-4-(2-((S)-2-(2-isopropylphenyl)pyrrolidin-1-yl)-7-azaspiro[3,5]nonan-7-yl)benzamide [Example B3]”, for which the IC50 in assay [1] is 0.063 nM; in assay [2], 0.94 nM; in assay [3] (48 hrs treatment), 1.1 nM; in assay [4], 4540 nM; on BA/F3-BCL-2 cells it was 1.1 nM. Further, the GI50 on BA/F3-BCL-2 G101V cells is 10.8 nM.

Regarding `CC(C)c1ccccc1[C@@H]1CCCN1C1CC2(CCN(c3ccc(C(=O)NS(=O)(=O)c4cc5c(c([N+](=O)[O-])c4)N[C@H](C[C@H]4CC[C@@H](O)CC4)CO5)c(Oc4cnc5[nH]ccc5c4)c3)CC2)C1` [Example A5, 2-((1H-pyrrolo[2,3-b]pyridin-5-yl)oxy)-N—(((R)-3-(((1s,4S)-4-hydroxycyclohexyl)methyl)-5-nitro-3,4-dihydro-2H-benzo[b][1,4]oxazin-7-yl)sulfonyl)-4-(2-((S)-2-(2-isopropylphenyl)pyrrolidin-1-yl)-7-azaspiro[3,5]nonan-7-yl)benzamide], the IC50 in assay [1] stood at 0.024 nM; in assay [2], 0.83 nM; in assay [3] (setting [5]) it was 1 nM; in assay [4] (Homo sapiens, MOLT-4), 5160 nM; on BA/F3-BCL-2 cells, 0.41 nM. Besides, the GI50 on BA/F3-BCL-2 G101V cells was 7.5 nM.

As for `CC(C)c1ccccc1[C@@H]1CCCN1C1CC2(CCN(c3ccc(C(=O)NS(=O)(=O)c4ccc(NC[C@H]5CC[C@](C)(O)CC5)c([N+](=O)[O-])c4)c(N4CCCOc5nc6[nH]ccc6cc54)c3)CC2)C1` [Example B1], the IC50 amounted to 0.04 nM in assay [1]; 1.9 nM in assay [2]; 1.7 nM in assay [3] (setting [5]); 6730 nM in assay [4] (Homo sapiens, MOLT-4); 1 nM at BA/F3-BCL-2 cells. Besides, the GI50 on BA/F3-BCL-2 G101V cells was 15.5 nM.

With `CC(C)c1ccccc1[C@@H]1CCCN1C1CC2(CCN(c3ccc(C(=O)NS(=O)(=O)c4ccc(NCC5(F)CCOCC5)c([N+](=O)[O-])c4)c(N4CCCOc5nc6[nH]ccc6cc54)c3)CC2)C1` [Example B2, (S)-2-(3,4-dihydro-2H-pyrrolo[3′,2′:5,6]pyrido[2,3-b][1,4]oxazepin-1(7H)-yl)-N-((4-(((4-fluorotetrahydro-2H-pyran-4-yl)methyl)amino)-3-nitrophenyl)sulfonyl)-4-(2-(2-(2-isopropylphenyl)pyrrolidin 1-yl)-7-azaspiro[3,5]nonan-7-yl)benzamide], the IC50 in assay [1] stood at 0.05 nM; in assay [2], 1.8 nM; in assay [3] (setting [5]), 1.7 nM; in assay [4] (Homo sapiens, MOLT-4), 5560 nM; at BA/F3-BCL-2 cells it was 0.82 nM. At BA/F3-BCL-2 G101V cells, the GI50 was 7.8 nM.
